Molecules are shown by their SMILES. Where only a bound is given, the exact number is not on record here.

For series [1], the target named is T1, TLR7 (Homo sapiens, UniProt Q9NYK1).
T1 sequence (Q9NYK1 27-1049): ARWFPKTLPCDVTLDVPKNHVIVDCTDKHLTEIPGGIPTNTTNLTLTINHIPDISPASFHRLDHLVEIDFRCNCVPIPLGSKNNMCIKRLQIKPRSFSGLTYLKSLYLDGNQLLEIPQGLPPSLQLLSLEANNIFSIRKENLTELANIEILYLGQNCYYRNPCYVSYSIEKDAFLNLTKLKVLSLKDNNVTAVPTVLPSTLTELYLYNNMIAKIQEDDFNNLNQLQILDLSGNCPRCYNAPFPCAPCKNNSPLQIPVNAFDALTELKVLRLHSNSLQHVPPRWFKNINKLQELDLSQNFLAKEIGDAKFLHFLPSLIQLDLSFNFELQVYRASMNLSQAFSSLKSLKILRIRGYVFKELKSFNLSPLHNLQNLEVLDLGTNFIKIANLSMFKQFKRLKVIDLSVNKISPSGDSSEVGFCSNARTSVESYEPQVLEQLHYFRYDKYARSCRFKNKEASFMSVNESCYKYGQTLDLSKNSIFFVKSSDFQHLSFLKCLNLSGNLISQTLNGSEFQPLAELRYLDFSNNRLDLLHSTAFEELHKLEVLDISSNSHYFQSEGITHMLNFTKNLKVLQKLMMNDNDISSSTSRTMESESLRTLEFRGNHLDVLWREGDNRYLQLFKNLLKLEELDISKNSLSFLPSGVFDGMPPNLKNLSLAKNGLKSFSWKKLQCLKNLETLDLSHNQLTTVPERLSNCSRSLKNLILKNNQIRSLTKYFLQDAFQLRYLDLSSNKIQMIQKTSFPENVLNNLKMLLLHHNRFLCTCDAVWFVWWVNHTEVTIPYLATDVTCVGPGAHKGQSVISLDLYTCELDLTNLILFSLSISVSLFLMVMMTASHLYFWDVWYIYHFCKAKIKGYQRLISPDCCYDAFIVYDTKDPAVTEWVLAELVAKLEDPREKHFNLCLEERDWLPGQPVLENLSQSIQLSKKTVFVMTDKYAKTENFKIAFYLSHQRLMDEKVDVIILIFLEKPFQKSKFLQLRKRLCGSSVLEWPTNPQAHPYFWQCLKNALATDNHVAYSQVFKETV
As to conditions: background statement; cited from earlier work.

Series [2] deals with Cyp and hERG. To be noted: background statement; cited from earlier work.
Series [3] can be described thus: 30-day influencing factor stability test (heating, illumination, high humidity). The format is physicochemical. The procedure: The crystalline form A and crystalline form B of the compound of formula (I) were transferred and let stand in clean open weighing bottles to test the stability under the conditions of heating (40° C., 60° C.), illumination (4500 1×±500 1×) and high humidity (90%±5%, 75%±5%) during an inspection period of 30 days.

For series [4], the target named is T2, CYP3A4 (testosterone metabolic site) (Homo sapiens, UniProt P08684).
T2 construct: Human liver microsome (Corning Gentest); tissue Corning Gentest; host or cells: human liver microsomes
Description: Inhibition of testosterone metabolic site on human liver microsome CYP3A4. The format is in vitro ADME. As to conditions: human liver microsomes, testosterone probe. On the procedure: Test example 4. Inhibitory effect of the compound disclosed herein on enzymatic activity of testosterone metabolic site on human liver microsome CYP3A4
The inhibitory effect of the compound disclosed herein on the enzymatic activity of the testosterone metabolic site on human liver microsome CYP3A4 was determined by the following procedures:
• 1. Phosphate buffered saline (PBS), • 2. NADPH (Sigma N-1630), • 3. Human liver microsome (Corning Gentest), • 4. ABI QTrap 4000 LC-MS/MS System (AB Sciex), • 5. Inertsil C8-3 column, 4.6×50 mm, 5 (Dikma, USA), • 6. CYP probe substrate (testosterone/100 μM, SIGMA K1003) and positive control inhibitor (ketoconazole, Dr. Ehrenstorfer GmbH, C17322500). II. Procedures
A 100 mM PBS buffer was prepared and was used to prepare a 2.5 mg/mL microsome solution and a 5 mM NADPH solution. A compound working solution at 5× concentration was serially diluted with PBS (150, 50, 15, 5, 1.5, 0.15, 0.015 and 0 μM). A ketoconazole working solution at 5× concentration was serially diluted with PBS (150, 50, 15, 5, 1.5, 0.15, 0.015 and 0 μM). A dextromethorphan working solution was diluted to 50 μM with PBS. […]
The IC50 values of the drug for testosterone metabolic site on CYP3A4 were calculated by Graphpad Prism and are shown in Table 1-4.
For orientation: Microsomes from liver hold many membrane-bound enzymes, among them those of drug oxidation.

Series [5] relates to IL-12 secretion in peripheral blood mononuclear cells (PBMCs). Kind of series: Stimulation of IL-12 secretion in PBMCs. As to conditions: 24 h incubation. The series is classed as cell-based, human. The procedure:
Test example 5. Determination of the ability of the compound disclosed herein to stimulate IL-12 and IFNγ secretion in peripheral blood mononuclear cells (PBMCs) The ability of the compound disclosed herein to stimulate IL-12 and IFNγ secretion in PBMCs was determined by the following procedures:
• 1. RPMI 1640 (Invitrogen, 11875), • 2. FBS (Gibco, 10099-141), • 3. Ficoll-Paque PREMIUM (GE, 17-5442-02), • 4. Trypan blue solution (Sigma, T8154-100ML), • 5. SepMateTM-50 (Stemcell, 15460), • 6. Bright-Line™ cytometer (Sigma, Z359629-1EA), • 7. 96-well flat bottom plate (Corning, 3599), • 8. 96-well v-bottom plate (Corning, 3894), • 9. Human IL-12 ELISA kit (NEOBIOSCIENCE, EHC152.96), • 10. Human IFN γ kit (Cisbio, 62HIFNGPEG), • 11. PHERAStar Multi-Mode Microplate Reader (BMG, PHERAStar). II. Procedures […]
All reagents were equilibrated to room temperature. […] The cells were resuspended in RMPI 1640 culture medium containing 10% FBS, counted and adjusted to 3.33×10^6 cells/mL. […]
The reagents of the Human IL-12 detection kit was equilibrated to room temperature. […] Finally, a terminating solution was added to terminate the reaction, and the plate was detected for the absorbance at 450 nm using a microplate reader. […]
The ability of the compound disclosed herein to stimulate IL-12 and IFNγ secretion in PBMCs was determined by the above test and the MEC values obtained are shown in Table 1-5.

The nature of series [6]: Stability under long-term and accelerated conditions, 3 months. The format is physicochemical. The procedure: The crystalline form B of the compound of formula (I) was examined for the stability under long-term (25° C., 60% RH) and accelerated (40° C., 75% RH) conditions in a period of 3 months.

T2 sequence (P08684 whole entry): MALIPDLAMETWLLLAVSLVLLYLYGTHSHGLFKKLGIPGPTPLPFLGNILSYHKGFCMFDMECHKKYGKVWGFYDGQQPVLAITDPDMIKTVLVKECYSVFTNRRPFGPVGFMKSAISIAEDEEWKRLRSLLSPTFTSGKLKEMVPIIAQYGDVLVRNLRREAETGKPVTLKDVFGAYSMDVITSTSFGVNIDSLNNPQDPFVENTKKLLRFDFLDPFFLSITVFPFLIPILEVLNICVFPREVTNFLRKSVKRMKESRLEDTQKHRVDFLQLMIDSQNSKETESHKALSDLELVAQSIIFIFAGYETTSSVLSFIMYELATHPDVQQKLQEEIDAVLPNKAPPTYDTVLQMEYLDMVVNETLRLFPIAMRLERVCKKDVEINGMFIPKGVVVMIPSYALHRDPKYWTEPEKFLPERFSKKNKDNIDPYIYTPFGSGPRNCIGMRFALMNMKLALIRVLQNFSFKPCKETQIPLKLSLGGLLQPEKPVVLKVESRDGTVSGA

`CCCC[C@](C)(CO)Nc1nc(N)nc2cc(F)cnc12` [GS-9688]: the “Activity on TLR7 (in words)” value in series [1] is recorded as “certain activity on TLR7”. The “Selectivity for Cyp and hERG (in words)” value in series [2] was “poor selectivity for Cyp and hERG”.
With `CCCC[C@](C)(CO)Nc1nc(N)nc2cc(-c3ccc(CN4CCN(C)CC4)nc3)cnc12` [crystalline form A], the Purity in series [3] (40° C., 5 days) is on record as 96.98%; in series [3] (40° C., 10 days), 96.98%; in series [3] (40° C., 30 days) it was 95.47%; in series [3] (60° C., 5 days), 95.87%; in series [3] (60° C., 10 days), 95.72%; in series [3] (60° C., 30 days), 93.74%. Besides, the Purity worked out at 95.82% in series [3] (4500 lux, 5 days); 94.99% in series [3] (4500 lux, 10 days); 92.51% in series [3] (4500 lux, 30 days); 97.83% in series [3] (Initial, 0 days); 97.83% in series [3] (RH 75%, 5 days); 97.85% in series [3] (RH 75%, 10 days). Also, the Purity in series [3] (RH 75%, 30 days) is 97.47%; in series [3] (RH 90%, 5 days), 97.91%; in series [3] (RH 90%, 10 days), 97.84%; in series [3] (RH 90%, 30 days) it was 97.53%.
With `CCCN(CCC)C(=O)C1=Cc2ccc(-c3ccc(C(=O)N4CCCC4)cc3)cc2N=C(N)C1` [VTX-2337], the “Activity on TLR7 (in words)” value in series [1] was “certain activity on TLR7”. Further, in series [2], the “Selectivity for Cyp and hERG (in words)” value is “poor selectivity for Cyp and hERG”.
The term IC50 denotes the concentration that inhibits the measured activity by half. Read a high IC50 as a need for much substance. Regarding `CCCC[C@](C)(CO)Nc1nc(N)nc2cc(-c3ccc(CN4CCN(C)CC4)nc3)cnc12` [Example 1, (R)-2-((2-amino-7-(6-((4-methylpiperazin-1-yl)methyl)pyridin-3-yl)pyrido[3,2-d]pyrimidin-4-yl)amino)-2-methylhexan-1-ol], the IC50 at 30 min in series [4] was greater than 30 µM. In addition, the “IL-12 MEC (minimum effective concentration)” value in series [5] stood at 41 nM.
In the case of `CCCC[C@](C)(CO)Nc1nc(N)nc2cc(-c3ccc(CN4CCN(C)CC4)nc3)cnc12` [crystalline form B], the Purity in series [3] (40° C., 5 days) worked out at 98.19%; in series [3] (40° C., 10 days), 98.17%; in series [3] (40° C., 30 days), 97.23%; in series [3] (60° C., 5 days) it was 97.87%; in series [3] (60° C., 10 days), 97.53%; in series [3] (60° C., 30 days), 96.24%. Moreover, the Purity in series [3] (4500 lux, 5 days) worked out at 95.48%; in series [3] (4500 lux, 10 days) it was 92.61%; in series [3] (4500 lux, 30 days), 88.03%; in series [3] (Initial, 0 days) it was 98.65%; in series [3] (RH 75%, 5 days), 98.65%; in series [3] (RH 75%, 10 days) it was 98.69%. Also, the Purity in series [3] (RH 75%, 30 days) was determined as 97.96%; in series [3] (RH 90%, 5 days), 98.69%; in series [3] (RH 90%, 10 days), 98.75%; in series [3] (RH 90%, 30 days), 97.99%; in series [6] (25° C., 60% RH, Initial) it was 99.71%; in series [6] (25° C., 60% RH, Month 1), 99.70%. The Purity in series [6] (25° C., 60% RH, Month 2) is reported as 99.71%; in series [6] (25° C., 60% RH, Month 3) it was 99.62%; in series [6] (40° C., 75% RH, Initial) it was 99.71%; in series [6] (40° C., 75% RH, Month 1), 99.69%; in series [6] (40° C., 75% RH, Month 2) it was 99.68%; in series [6] (40° C., 75% RH, Month 3), 99.54%. For the same compound, in series [6] (3 months, long-term (25° C., 60% RH) and accelerated (40° C., 75% RH)), the “Physical and chemical stability (in words)” value is “good physical and chemical stabilities”.

These data come from patent US12269823B2, “Crystal form of pyridopyrimidine derivative and preparation method thereof” (JIANGSU HENGRUI MEDICINE CO., LTD., priority 2020, dated 2025).
